# Data reported in US20230374025A1, “FGFR INHIBITOR COMPOUND AND USE THEREOF” (SHENZHEN KANGSU PHARMACEUTICAL TECHNOLOGY CO., LTD., priority 2021, published 2023).
# How the values were obtained:
# Type in all cases: biochemical
# [1] = molecular target: T1, FGFR3 V555M (Homo sapiens, UniProt P22607, V555M); assay: Assay I: inhibitory activity against FGFR mutants (HTRF KinEASE-TK); conditions: ATP 20 μM, substrate TK 1 μM
# T1 construct: purchased Signalchem F06-12GG
# Protocol: (§1) Assay I: Determination of Inhibitory Activity Against FGFR Mutants
# (§2) 1. Reagents and Equipment
# (§3) 2.1 Preparation of 1× Kinase Reaction Buffer:
# (§4) 1× Kinase reaction buffer was formulated with 1× volume of 5× kinase reaction buffer and 4× volume of water; 5 mM MgCl2; and 1 mM DTT.
# (§5) 2.3 Screening of Compounds:
# (§6) 1. Diluting a compound 4-fold in a dilution plate with DMSO, with a starting compound concentration of 2 mM.
# (§7) 2. Diluting the compound 40-fold into 1× kinase reaction buffer and shaking it on a shaker for 20 minutes.
# (§8) 5. Adding 1 μl of the compound diluted in buffer to each well, sealing the plate with a sealing membrane and centrifuging the plate at 1000 g for 30 seconds and leaving it at room temperature for 10 minutes.
# (§9) 6. Formulating 2.5×TK-substrate-biotin and ATP mixture with 1× enzyme reaction buffer and adding 2 μl of K-substrate-biotin/ATP mixture to the reaction plate.
# (§10) 7. Sealing the plate with a sealing membrane and centrifuging the plate at 1000 g for 30 seconds and allowing it to react at room temperature for 50 minutes.
# (§11) 8. Formulating 4× Sa-XL 665 (250 nM) with HTRF assay buffer.
# (§12) 9. Adding 5 μl Sa-XL 665 and 5 μl TK-Antibody-Cryptate to each well, centrifuging it at 1000 g for 30 seconds, and allowing it to react for 1 hour at room temperature.
# (§13) 10. Reading fluorescence signals at 615 nm (Cryptate) and 665 nm (XL665) with Biotek.
# (§14) 3.1 Calculation of the ratio for each well: the ratio was calculated as 665/615 nm.
# (§15) 3.3 Calculation of IC50 and plotting of inhibition curves for the compounds.
# (§16) The IC50 (half inhibition concentration) of a compound was obtained using the following non-linear fitting equation, wherein data analysis was performed using Graphpad 6.0 software.
# (§17) Y=Bottom+(Top−Bottom)/(1+10^((Log IC50−X)*Hill Slope)) • X: log value of compound concentration; and Y: inhibition rate (% inh)
# (§18) 3.4 Validation of Results
# (§19) Data were exported from Envision and analyzed manually. The ratios were converted to inhibition rates and IC50 was calculated by Prism GraphPad 6.0 from the inhibition rates. IC50 was calculated again by the ratios to verify accuracy of the results.
# [2] = molecular target: T2, FGFR1 V561M (Homo sapiens, UniProt P11362, V561M); assay: as above; conditions: ATP 5 μM, substrate TK 1 μM
# T2 construct: purchased Signalchem F04-13G
# T2 sequence (P11362 22-822 V561M): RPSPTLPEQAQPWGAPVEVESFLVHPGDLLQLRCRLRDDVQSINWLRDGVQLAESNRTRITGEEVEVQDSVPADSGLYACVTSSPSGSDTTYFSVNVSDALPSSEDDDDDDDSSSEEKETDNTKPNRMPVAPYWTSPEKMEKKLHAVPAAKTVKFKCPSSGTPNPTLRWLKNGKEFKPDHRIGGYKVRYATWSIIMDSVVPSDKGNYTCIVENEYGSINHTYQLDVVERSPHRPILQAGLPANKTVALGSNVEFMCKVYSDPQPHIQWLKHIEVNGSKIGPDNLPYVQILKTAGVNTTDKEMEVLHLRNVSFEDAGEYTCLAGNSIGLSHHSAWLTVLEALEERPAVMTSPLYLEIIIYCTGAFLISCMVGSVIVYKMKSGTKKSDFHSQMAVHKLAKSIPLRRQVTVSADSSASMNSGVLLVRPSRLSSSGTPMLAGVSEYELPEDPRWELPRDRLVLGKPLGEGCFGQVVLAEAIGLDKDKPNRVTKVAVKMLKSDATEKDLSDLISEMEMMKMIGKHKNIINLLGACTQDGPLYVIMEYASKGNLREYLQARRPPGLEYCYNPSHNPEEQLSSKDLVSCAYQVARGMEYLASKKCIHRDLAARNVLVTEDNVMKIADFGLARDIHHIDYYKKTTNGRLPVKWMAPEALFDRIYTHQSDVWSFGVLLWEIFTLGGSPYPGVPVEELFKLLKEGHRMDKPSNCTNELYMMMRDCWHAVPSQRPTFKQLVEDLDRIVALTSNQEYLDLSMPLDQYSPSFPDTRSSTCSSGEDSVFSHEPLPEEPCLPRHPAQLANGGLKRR
# Protocol: as §1, §2, §3, §4, §5, §6, §7, §8, §9, §10, §11, §12, §13, §14, §15, §16, §17, §18, §19
# [3] = molecular target: T3, FGFR2 V564F (Homo sapiens, UniProt P21802, V564F); assay: as above; conditions: ATP 10 μM, substrate TK 1 μM
# T3 construct: purchased Signalchem F05-12FG
# T3 sequence (P21802 22-821 V564F): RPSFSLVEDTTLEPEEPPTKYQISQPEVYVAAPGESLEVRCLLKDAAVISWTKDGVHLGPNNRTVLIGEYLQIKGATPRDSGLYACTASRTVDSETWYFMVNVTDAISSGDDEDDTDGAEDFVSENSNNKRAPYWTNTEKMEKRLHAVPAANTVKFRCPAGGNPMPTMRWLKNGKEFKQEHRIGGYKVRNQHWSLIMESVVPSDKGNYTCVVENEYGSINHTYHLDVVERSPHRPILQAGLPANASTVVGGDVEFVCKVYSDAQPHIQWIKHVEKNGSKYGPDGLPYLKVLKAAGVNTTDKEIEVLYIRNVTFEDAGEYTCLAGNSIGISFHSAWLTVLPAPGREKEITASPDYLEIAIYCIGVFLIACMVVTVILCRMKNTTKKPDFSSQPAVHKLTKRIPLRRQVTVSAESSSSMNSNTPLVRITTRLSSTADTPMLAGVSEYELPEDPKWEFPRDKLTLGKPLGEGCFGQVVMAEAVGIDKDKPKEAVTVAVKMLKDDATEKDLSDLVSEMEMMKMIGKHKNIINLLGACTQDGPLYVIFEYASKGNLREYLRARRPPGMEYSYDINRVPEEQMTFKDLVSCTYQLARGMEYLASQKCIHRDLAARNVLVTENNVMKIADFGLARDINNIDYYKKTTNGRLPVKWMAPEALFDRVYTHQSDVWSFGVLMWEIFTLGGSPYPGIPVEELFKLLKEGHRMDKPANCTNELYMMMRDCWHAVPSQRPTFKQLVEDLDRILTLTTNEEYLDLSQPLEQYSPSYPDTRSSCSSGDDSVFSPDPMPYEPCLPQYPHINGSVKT
# Protocol: as §1, §2, §3, §4, §5, §6, §7, §8, §9, §10, §11, §12, §13, §14, §15, §16, §17, §18, §19
# [4] = molecular target: T4, VEGFR2 (Homo sapiens, UniProt P35968); assay: Assay I: VEGFR2 kinase inhibition (HTRF KinEASE-TK); conditions: ATP 5 μM, substrate TK 1 μM
# T4 construct: purchased Carna 08-191
# T4 sequence (P35968 20-1356): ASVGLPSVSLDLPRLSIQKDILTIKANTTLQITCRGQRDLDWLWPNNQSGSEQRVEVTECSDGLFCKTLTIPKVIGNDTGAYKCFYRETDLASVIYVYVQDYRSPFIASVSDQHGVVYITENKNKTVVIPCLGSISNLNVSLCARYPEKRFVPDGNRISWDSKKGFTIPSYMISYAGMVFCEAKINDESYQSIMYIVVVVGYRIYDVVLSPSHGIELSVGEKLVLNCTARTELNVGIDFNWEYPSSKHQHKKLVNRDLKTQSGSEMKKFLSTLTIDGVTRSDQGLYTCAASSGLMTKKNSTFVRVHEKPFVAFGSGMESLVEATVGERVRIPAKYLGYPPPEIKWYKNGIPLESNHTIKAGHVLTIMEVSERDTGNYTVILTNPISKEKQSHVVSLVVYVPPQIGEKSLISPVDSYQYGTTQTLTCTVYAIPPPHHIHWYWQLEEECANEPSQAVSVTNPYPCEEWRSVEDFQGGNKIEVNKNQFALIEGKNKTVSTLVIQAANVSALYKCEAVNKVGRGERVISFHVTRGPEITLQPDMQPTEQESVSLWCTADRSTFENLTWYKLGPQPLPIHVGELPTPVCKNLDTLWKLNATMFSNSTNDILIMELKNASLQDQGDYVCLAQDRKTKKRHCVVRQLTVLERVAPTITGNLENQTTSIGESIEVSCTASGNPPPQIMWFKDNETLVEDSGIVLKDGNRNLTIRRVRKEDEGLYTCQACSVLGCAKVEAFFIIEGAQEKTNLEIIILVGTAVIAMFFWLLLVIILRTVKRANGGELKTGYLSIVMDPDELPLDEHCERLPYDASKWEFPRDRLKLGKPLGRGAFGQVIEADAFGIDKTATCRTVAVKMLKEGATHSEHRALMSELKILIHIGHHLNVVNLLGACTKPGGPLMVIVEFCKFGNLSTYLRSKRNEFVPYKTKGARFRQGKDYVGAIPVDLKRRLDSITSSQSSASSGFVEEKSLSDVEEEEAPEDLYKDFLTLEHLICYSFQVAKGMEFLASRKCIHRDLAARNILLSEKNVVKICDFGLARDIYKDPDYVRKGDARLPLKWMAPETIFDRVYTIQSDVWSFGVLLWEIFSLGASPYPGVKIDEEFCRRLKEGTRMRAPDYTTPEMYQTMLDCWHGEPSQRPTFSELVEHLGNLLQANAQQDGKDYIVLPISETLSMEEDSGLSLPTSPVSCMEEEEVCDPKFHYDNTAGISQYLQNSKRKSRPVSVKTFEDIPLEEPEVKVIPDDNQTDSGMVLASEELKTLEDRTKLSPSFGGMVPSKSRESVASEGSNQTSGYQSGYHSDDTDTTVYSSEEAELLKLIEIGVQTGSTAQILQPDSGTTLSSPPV
# Protocol: as §1, §2, §3, §4, §5, §6, §7
# 3. Formulating 2×FGFR1 V561M/FGFR2 V564F/FGFR3 K650E/VEGFR2 with 1× of enzyme reaction buffer.
# 4. Adding 2 μl FGFR1 V561M/FGFR2 V564F/FGFR3 K650E/VEGFR2 kinase (formulated in step 3) to each well of the reaction plate.
# as §8, §9, §10, §11, §12, §13, §14, §15, §16, §17, §18, §19
# Positive control IC50 was within 3 times of the average value
# T1 sequence (P22607 397-806 V555M limits assumed): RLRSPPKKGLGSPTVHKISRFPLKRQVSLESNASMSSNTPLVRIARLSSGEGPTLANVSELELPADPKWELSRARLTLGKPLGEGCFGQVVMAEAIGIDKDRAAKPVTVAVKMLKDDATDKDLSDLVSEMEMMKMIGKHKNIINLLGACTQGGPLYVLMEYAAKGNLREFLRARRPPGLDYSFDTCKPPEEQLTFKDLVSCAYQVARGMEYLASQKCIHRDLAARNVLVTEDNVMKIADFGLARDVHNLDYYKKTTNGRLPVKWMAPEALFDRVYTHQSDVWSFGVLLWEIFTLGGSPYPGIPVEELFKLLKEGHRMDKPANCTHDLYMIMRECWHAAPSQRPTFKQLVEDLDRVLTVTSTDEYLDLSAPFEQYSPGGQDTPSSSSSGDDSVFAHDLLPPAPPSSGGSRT
SMILES,IC50 [1],IC50 [2],IC50 [3],IC50 [4]
"CC(Oc1ccc2[nH]nc(-c3nc4c([nH]3)CNC4)c2c1)c1c(Cl)cncc1Cl (stereo not shown) [Compound 19, 5-(1-(3,5-dichloropyridin-4-yl)ethoxy)-3-(1,4,5,6-tetrahydropyrrolo[3,4-d]imidazol-2-yl)-1H-indazole]",0.76 nM,0.6 nM,0.59 nM,31 nM
"CC(Oc1ccc2[nH]nc(-c3nc4c([nH]3)CN(C3CC(O)C3)C4)c2c1)c1c(Cl)cncc1Cl (stereo not shown) [Compound 21, 3-(2-(5-(1-(3,5-dichloropyridin-4-yl)ethoxy)-1H-indazol-3-yl)-4,6-dihydropyrrolo[3,4-d]imidazol-5(1H)-yl)cyclobutan-1-ol]",0.64 nM,0.97 nM,0.66 nM,26 nM
"CC(Oc1ccc2[nH]nc(-c3nc4c([nH]3)CN(C3CCC(O)CC3)C4)c2c1)c1c(Cl)cncc1Cl (stereo not shown) [Compound 22, 4-(2-(5-(1-(3,5-dichloropyridin-4-yl)ethoxy)-1H-indazol-3-yl)-4,6-dihydropyrrolo[3,4-d]imidazol-5(1H)-yl)cyclohexan-1-ol]",0.91 nM,1.8 nM,0.76 nM,11.7 nM
"CCOC(=O)N1Cc2nc(-c3n[nH]c4ccc(OC(C)c5c(Cl)cncc5Cl)cc34)[nH]c2C1 (stereo not shown) [Compound 23, Ethyl 2-(5-(1-(3,5-dichloropyridin-4-yl)ethoxy)-1H-indazol-3-yl)-4,6-dihydropyrrolo[3,4-d]imidazole-5(1H)-carboxylate]",1.3 nM,1.2 nM,0.48 nM,85 nM
"CC(Oc1ccc2[nH]nc(-c3nc4c([nH]3)CN(C(=O)OCCC#N)C4)c2c1)c1c(Cl)cncc1Cl (stereo not shown) [Compound 24, 2-cyanoethyl 2-(5-(1-(3,5-dichloropyridin-4-yl)ethoxy)-1H-indazol-3-yl)-4,6-dihydropyrrolo[3,4-d]imidazole-5(1H)-carboxylate]",4.6 nM,2.4 nM,1.4 nM,27.5 nM
"CC(Oc1ccc2[nH]nc(-c3nc4c([nH]3)CN(C(=O)C3CC3)C4)c2c1)c1c(Cl)cncc1Cl (stereo not shown) [Compound 25, Cyclopropyl (2-(5-(1-(3,5-dichloropyridin-4-yl)ethoxy)-1H-indazol-3-yl)-4,6-dihydropyrrolo[3,4-d]imidazol-5(1H)-yl)ketone]",0.26 nM,0.98 nM,0.41 nM,10 nM
"CC(Oc1ccc2[nH]nc(-c3nc4c([nH]3)CN(C(=O)C3CC(O)C3)C4)c2c1)c1c(Cl)cncc1Cl (stereo not shown) [Compound 26, (2-(5-(1-(3,5-dichloropyridin-4-yl)ethoxy)-1H-indazol-3-yl)-4,6-dihydropyrrolo[3,4-d]imidazol-5(1H)-yl)(3-hydroxycyclobutyl)ketone]",0.13 nM,0.38 nM,0.17 nM,7.1 nM
"CC(Oc1ccc2[nH]nc(-c3nc4c([nH]3)CN(C(=O)CC#N)C4)c2c1)c1c(Cl)cncc1Cl (stereo not shown) [Compound 27, 3-(2-(5-(1-(3,5-dichloropyridin-4-yl)ethoxy)-1H-indazol-3-yl)-4,6-dihydropyrrolo[3,4-d]imidazol-5(1H)-yl)-3-oxopropionitrile]",0.4 nM,0.94 nM,0.16 nM,37.5 nM
"CCS(=O)(=O)N1Cc2nc(-c3n[nH]c4ccc(OC(C)c5c(Cl)cncc5Cl)cc34)[nH]c2C1 (stereo not shown) [Compound 28, 5-(1-(3,5-dichloropyridin-4-yl)ethoxy)-3-(5-(ethylsulfonyl)-1,4,5,6-tetrahydropyrrolo[3,4-d]imidazol-2-yl)-1H-indazole]",0.52 nM,1.6 nM,0.3 nM,30 nM
"CC(Oc1ccc2[nH]nc(-c3nc4c([nH]3)CN(S(=O)(=O)C3CC3)C4)c2c1)c1c(Cl)cncc1Cl (stereo not shown) [Compound 29, 3-(5-(Cyclopropylsulfonyl)-1,4,5,6-tetrahydropyrrolo[3,4-d]imidazol-2-yl)-5-(1-(3,5-dichloropyridin-4-yl)ethoxy)-1H-indazole]",0.7 nM,1.2 nM,1.6 nM,64 nM
"CC(Oc1ccc2[nH]nc(-c3nc4c([nH]3)CN(S(=O)(=O)C(C)C)C4)c2c1)c1c(Cl)cncc1Cl (stereo not shown) [Compound 30, 5-(1-(3,5-dichloropyridin-4-yl)ethoxy)-3-(5-(isopropylsulfonyl)-1,4,5,6-tetrahydropyrrolo[3,4-d]imidazol-2-yl)-1H-indazole]",0.6 nM,0.4 nM,0.3 nM,96 nM
"CC(Oc1ccc2[nH]nc(-c3nc4c([nH]3)CN(C(=O)CN3CCC(O)C3)C4)c2c1)c1c(Cl)cncc1Cl (stereo not shown) [Compound 31, 1-(2-(5-(1-(3,5-dichloropyridin-4-yl)ethoxy)-1H-indazol-3-yl)-4,6-dihydropyrrolo[3,4-d]imidazol-5(1H)-yl)-2-(3-hydroxypyrrolidin-1-yl)ethan-1-one]",0.1 nM,0.67 nM,0.15 nM,14 nM
"CC(Oc1ccc2[nH]nc(-c3nc4c([nH]3)CN(C(=O)CN3CCC(C#N)C3)C4)c2c1)c1c(Cl)cncc1Cl (stereo not shown) [Compound 32, 1-(2-(2-(5-(1-(3,5-dichloropyridin-4-yl)ethoxy)-1H-indazol-3-yl)-4,6-dihydropyrrolo[3,4-d]imidazol-5(1H)-yl)-2-oxoethyl)pyrrolidine-3-carbonitrile]",0.19 nM,1.1 nM,1.2 nM,3.7 nM
"CNC(=O)N1Cc2nc(-c3n[nH]c4ccc(O[C@H](C)c5c(Cl)cncc5Cl)cc34)[nH]c2C1 [Compound 33, (R)-2-(5-(1-(3,5-dichloropyridin-4-yl)ethoxy)-1H-indazol-3-yl)-N-methyl-4,6-dihydropyrrolo[3,4-d]imidazole-5(1H)-carboxamide]",0.46 nM,1.3 nM,0.45 nM,6.3 nM
"C[C@@H](Oc1ccc2[nH]nc(-c3nc4c([nH]3)CN(C(=O)N(C)C)C4)c2c1)c1c(Cl)cncc1Cl [Compound 34, (R)-2-(5-(1-(3,5-dichloropyridin-4-yl)ethoxy)-1H-indazol-3-yl)-N,N-dimethyl-4,6-dihydropyrrolo[3,4-d]imidazole-5(1H)-carboxamide]",0.27 nM,0.46 nM,0.29 nM,1.7 nM
"C[C@@H](Oc1ccc2[nH]nc(-c3nc4c([nH]3)CN(C3CCN(C)C3)C4)c2c1)c1c(Cl)cncc1Cl (stereo partly drawn) [Compound 36, 5-((R)-1-(3,5-Dichloropyridin-4-yl)ethoxy)-3-(5-(1-methylpyrrolidin-3-yl)-1,4,5,6-tetrahydropyrrolo[3,4-d]imidazol-2-yl)-1H-indazole]",0.31 nM,1.9 nM,0.61 nM,27.5 nM
"CC(C1CCN(C)CC1)N1Cc2nc(-c3n[nH]c4ccc(O[C@H](C)c5c(Cl)cncc5Cl)cc34)[nH]c2C1 (stereo partly drawn) [Compound 37, 5-((R)-1-(3,5-Dichloropyridin-4-yl)ethoxy)-3-(5-(1-(1-methylpiperidin-4-yl)ethyl)-1,4,5,6-tetrahydropyrrolo[3,4-d]imidazol-2-yl)-1H-indazole]",0.58 nM,3.9 nM,0.68 nM,49.3 nM
"C[C@@H](Oc1ccc2[nH]nc(-c3nc4c([nH]3)CN(C3CCCN(C)C3)C4)c2c1)c1c(Cl)cncc1Cl (stereo partly drawn) [Compound 38, 5-((R)-1-(3,5-Dichloropyridin-4-yl)ethoxy)-3-(5-(1-methylpiperidin-3-yl)-1,4,5,6-tetrahydropyrrolo[3,4-d]imidazol-2-yl)-1H-indazole]",0.15 nM,0.75 nM,0.19 nM,15.7 nM
"C[C@@H](Oc1ccc2[nH]nc(-c3nc4c([nH]3)CN(C(=O)CN3CCCC3)C4)c2c1)c1c(Cl)cncc1Cl [Compound 40, (R)-1-(2-(5-(1-(3,5-dichloropyridin-4-yl)ethoxy)-1H-indazol-3-yl)-4,6-dihydropyrrolo[3,4-d]imidazol-5(1H)-yl)-2-(pyrrolidin-1-yl)ethan-1-one]",0.26 nM,0.39 nM,0.32 nM,4.7 nM
